Data on ten compounds can be found in patent publication US20120283245A1, “AZABICYCLO[3.1.0]HEX-2-YL COMPOUNDS, A PROCESS FOR THEIR PREPARATION AND PHARMACEUTICAL COMPOSITIONS CONTAINING THEM” (LES LABORATOIRES SERVIER, priority 2009, published 2012).

Molecules are shown by their SMILES. Structures can show the parent of a compound that is named as a salt.

T1 sequence (P58406 whole entry): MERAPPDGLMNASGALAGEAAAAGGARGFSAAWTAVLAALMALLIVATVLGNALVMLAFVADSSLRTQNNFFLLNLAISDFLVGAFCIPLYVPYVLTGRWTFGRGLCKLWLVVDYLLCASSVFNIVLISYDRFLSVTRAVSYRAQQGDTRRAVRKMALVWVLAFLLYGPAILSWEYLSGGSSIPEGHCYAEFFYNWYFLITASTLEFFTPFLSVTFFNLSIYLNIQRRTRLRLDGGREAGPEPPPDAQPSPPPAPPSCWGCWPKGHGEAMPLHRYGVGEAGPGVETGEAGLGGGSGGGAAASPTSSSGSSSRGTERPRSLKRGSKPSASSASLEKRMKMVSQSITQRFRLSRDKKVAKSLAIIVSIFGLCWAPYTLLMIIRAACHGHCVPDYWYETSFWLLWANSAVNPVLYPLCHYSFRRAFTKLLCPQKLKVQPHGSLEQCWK

One assay addresses T1, type H3 central histamine receptors (Mus musculus, UniProt P58406).
T1 construct: from tissue; host or cells: brain of living NMRI mice (oral dosing)
Description: Cerebral levels of Nτ-methylhistamine in the NMRI mouse (ex vivo). As to conditions: 3 mg/kg PO, one hour after treatment, versus carrier controls. As for the experimental part:
The purpose of this study, which was carried out in accordance with the method of Taylor et al. (Biochem. Pharm., 1992, 44, 1261-1267), is to evaluate the ex vivo activity of the compounds of the present invention as antagonists of type H3 central histamine receptors. […] An increase in the cerebral concentrations of N^τ-methylhistamine indicates an increase in to the turn-over of histamine by blockage of the type H3 central histamine receptors. NMRI mice (18-20 g) are treated with compounds of the present invention or with their carrier (20 ml/kg) by the oral route. One hour after the pharmacological treatment, the animals are sacrificed; the brains are removed, frozen in liquid nitrogen, weighed and homogenised in 0.1N HClO4 at 4° C. The homogenised products are centrifuged (15000 g, 17 mins., 4° C.). The supernatants are recovered and divided into aliquots. The aliquots are frozen in liquid nitrogen and stored at −80° C. until they are analysed. Determination of the cerebral levels of N^τ-methylhistamine is carried out by capillary electrophoresis. The tissue levels of N^τ-methylhistamine are expressed in μg/g of fresh brain. The comparison of the cerebral levels of N^τ-methylhistamine between animals treated with the carrier (controls) and animals treated with compounds of the present invention is carried out by single-factor variance analysis followed, if necessary, by a complementary analysis (Dunnett's test).
Take `CC(=O)Nc1ccc(OCCCN2CC[C@H]3C[C@H]32)cc1` (relative stereo) [Example 3, N-(4-{3-(cis-2-azabicyclo[3.1.0]hex-2-yl)propoxy}phenyl)acetamide hydrochloride]: the “increase of endogenous cerebral concentrations of Nτ-methylhistamine” value (“increase” below) is given as “+272%”.

In the case of `CC(=O)Nc1ccc(OCCN2CC[C@H]3C[C@H]32)cc1.Cl` (relative stereo) [Example 4, N-(4-{2-(cis-2-azabicyclo[3.1.0]hex-2-yl)ethoxy}phenyl)acetamide hydrochloride], the “increase” value is given as “+221%”.

As to `CCN(CC)C(=O)c1ccc(OCCCN2CC[C@H]3C[C@H]32)cc1.Cl` (relative stereo) [Example 6, 4-{3-(cis-2-Azabicyclo[3.1.0]hex-2-yl)propoxy}-N,N-diethylbenzamide hydrochloride], the “increase” value is reported as “+225%”.

Regarding `CNC(=O)c1ccc(OCCCN2CC[C@H]3C[C@H]32)cc1.Cl` (relative stereo) [Example 7, 4-{3-(cis-2-Azabicyclo[3.1.0]hex-2-yl)propoxy}-N-methylbenzamide hydrochloride], the “increase” value is “+377%”.

For the compound `CC(=O)N(C)c1ccc(OCCCN2CC[C@H]3C[C@H]32)cc1.Cl` (relative stereo) [Example 8, N-(4-{3-(cis-2-azabicyclo[3.1.0]hex-2-yl)propoxy}phenyl)-N-methyl-acetamide hydrochloride], the “increase” value is given as “+276%”.

On to `COCC(=O)Nc1ccc(OCCCN2CC[C@H]3C[C@H]32)cc1` (relative stereo) [Example 9, N-(4-{3-(cis-2-azabicyclo[3.1.0]hex-2-yl)propoxy}phenyl)-2-methoxy-acetamide hydrochloride], for which the “increase” value is recorded as “+250%”.

The target of a further assay is T2, type H3 mouse histamine receptors (Mus musculus, UniProt P58406).
T2 construct: expressed in transfected cells; host or cells: CHO cells
T2 sequence (P58406 whole entry): as above
Description: Affinity for mouse H3 receptors (iodoproxyfan displacement, transfected CHO cells). The class given is binding. As to conditions: mouse H3 receptors transfected into CHO cells, iodoproxyfan radioligand, 24 h at room temperature. As for the experimental part:
The purpose is to measure the affinity of compounds of the present invention for type H3 mouse histamine receptors transfected into CHO cells. The compounds are incubated at different concentrations in the presence of transfected CHO cells, iodoproxyfan as a radiolabelled ligand which is specific for H3 receptors, and scintillant beads for 24 h at room temperature. At the end of the incubation, the displacement of the specific binding of the ligand by the compounds under test is measured, and the affinity constants of those compounds for mouse H3 receptors are determined
Consider `NC(=O)c1ccc(OCCCN2CC[C@H]3C[C@H]32)cc1` (racemic) [Example 1, 4-[3-(cis-2-Azabicyclo[3.1.0]hex-2-yl)propoxy]-benzamide hydrochloride], for which affinity was put at a Ki of 2400 nM.

`CC(=O)Nc1ccc(OCCCN2CC[C@H]3C[C@H]32)cc1` (racemic) [Example 3, N-(4-{3-(cis-2-azabicyclo[3.1.0]hex-2-yl)propoxy}phenyl)acetamide hydrochloride] gave a Ki of 750 nM.

Regarding `CN(C)C(=O)c1ccc(OCCCN2CC[C@H]3C[C@H]32)cc1` (racemic) [Example 5, 4-{3-(cis-2-Azabicyclo[3.1.0]hex-2-yl)propoxy}-N,N-dimethylbenzamide hydrochloride], the affinity, expressed as Ki, was 180 nM.

As for `COCC(=O)Nc1ccc(OCCCN2CC[C@H]3C[C@H]32)cc1` (racemic) [Example 9, N-(4-{3-(cis-2-azabicyclo[3.1.0]hex-2-yl)propoxy}phenyl)-2-methoxy-acetamide hydrochloride], affinity was put at a Ki of 390 nM.
